# Assay results: patent publication US20030148267A1, “Screening assay for hepatitis C virus antiviral agents” (priority 2001, published 2003)
# Values joined by “and” are separate entries in the source; they are usually repeats but may differ in a detail not shown here. Equal entries are not always repeated. “Also recorded” adds a separate entry of the source.
# Experiments:
# HCV (−) RNA synthesis = test: HCV (−) strand RNA synthesis in binary HCV expression system (RNase protection assay, strand-specific RT-PCR); assay type: cell-based, hepatitis C virus (genotype 1a, strain H77); conditions: for HCV (−) strand results with other timing of the drug: drug given 0 and 12 hours before vTF7-3 infection instead of 20 hours; for HCV replicative strand synthesis: the two RBV doses (50 and 400)
# HSV-1 = HSV-1 plaque formation in CV-1 cells; assay type: cell-based; conditions: the two RBV doses (50 and 400); listed as RBV
# HCV RNA = HCV RNA quasispecies analysis (mutation rate) in transfected/infected CV-1 cells; assay type: cell-based, hepatitis C virus (genotype 1a, strain H77); design: nucleotide substitutions / substitutions / error generation / dN/dS (nonsynonymous/synonymous mutation): unit of the concentration uncertain
# Procedure: Twenty-four hours post-vvT7, cells were lysed and RNA was extracted by TRIzol (GIBCO/BRL), DNase I-treated (Roche Molecular Biochemicals), and phenol-chloroform extracted.
# RT-PCR was performed for the 5′UTR, core, E2-HVR1, NS5A and NS5B regions using region-specific primers: […]
# RT was carried out on extracted RNA using AMV reverse transcriptase (Perkin-Elmer) using standard conditions. 25 cycles of PCR were carried out using 25 pmol each of the relevant sense and antisense primers, 0.5 mM of each dNTP, 1.5 mM MgCl2, and 0.5 units of Taq polymerase (Perkin-Elmer).
# Amplicons were cloned using the TOPO-PCR system (Invitrogen). Between 11 and 20 individual transformants corresponding to each region were sequenced bidirectionally by the ABI Prism automated sequencer, using primers flanking the insert. Synonymous and non-synonymous substitutions at variance from the parent pT7flHCV-Rz and pT7HCVDBglII-Rz sequences were determined and error generation rates calculated as nucleotide substitutions/total nucleotides sequenced. Sequences were aligned, and quasispecies diversity rates were compared between groups by using the statistical package SPSS 9.0.
# [1] = RBV 50, E2 (HVR-1), listed as REV
compound,measurement,setting,value
NC12CC3CC(CC(C3)C1)C2 [amantadine],HCV (−) strand synthesis,HCV (−) RNA synthesis; doses 1-100 mg/well,no activity; also recorded: Neither ribavirin nor amantadine demonstrated direct activity
same,HCV (−) strand results with other timing of the drug,HCV (−) RNA synthesis,unchanged
NC(=O)c1ncn([C@@H]2O[C@H](CO)[C@@H](O)[C@H]2O)n1 [ribavirin],additional RNA inhibitory effects,HCV (−) RNA synthesis; RBV added to IFN,not seen
same,HCV (−) RNA synthesis,HCV (−) RNA synthesis; doses of 10-200 mg/well,No inhibitory effect; also recorded: Neither ribavirin nor amantadine demonstrated direct activity
same,HCV (−) strand results with other timing of the drug,HCV (−) RNA synthesis,unchanged
same,HCV replicative strand synthesis,HCV (−) RNA synthesis,no effect
same,HCV replicative strand synthesis,HCV (−) RNA synthesis; listed as RBV,no direct decrease
same,HSV-1 plaque formation in CV-1 cells,HSV-1,activity against HSV-1
same,error generation throughout the viral genome compared with the lower dose,"HCV RNA; 400 mM vs 50 mM, differences not statistically significant",to a lesser degree than that observed at the lower dose
same,nucleotide substitutions,"HCV RNA; 50 (unit uncertain), HVR-1 region",15
same,substitutions,"HCV RNA; 50 (unit uncertain), core region",12
same,error generation,"HCV RNA; 400 (unit uncertain), across all regions",0.6-1.2 ×10^−3
same,Total Mutations (all regions),HCV RNA; RBV 50,54
same,ERROR GEN RATE,"HCV RNA; RBV 50, 5′UTR",0.7 X 10^−3
same,MUTANT CLONES (%),"HCV RNA; RBV 50, 5′UTR",3(20%)
same,NONSYN/SYN SUBS,"HCV RNA; RBV 50, 5′UTR",0/3
same,Transition Mutations T to C,"HCV RNA; RBV 50, 5′UTR",2
same,NONSYN/SYN SUBS,"HCV RNA; RBV 50, CORE",8/4
same,Transition Mutations C to T,"HCV RNA; RBV 50, CORE",2
same,Transition Mutations T to C,"HCV RNA; RBV 50, CORE",2
same,insertions (resulting in stop codons),"HCV RNA; RBV 50, CORE",2 insertions
same,ERROR GEN RATE,"HCV RNA; RBV 50, CORE, listed as RBV",1.9^1 X 10^−3
same,ERROR GEN RATE,"HCV RNA; RBV 50, CORE, listed as REV",1.9^2 X 10^−3
same,MUTANT CLONES (%),"HCV RNA; RBV 50, CORE, listed as REV",7(50%)
same,nt-insertions,"HCV RNA; RBV 50, CORE, listed as REV",4 nt-insertions
same,NONSYN/SYN SUBS,"HCV RNA; RBV 50, E2",11/4
same,Transition Mutations A to G,"HCV RNA; RBV 50, E2",4
same,Transition Mutations C to T,"HCV RNA; RBV 50, E2",1
same,Transition Mutations G to A,"HCV RNA; RBV 50, E2",1
same,Transition Mutations T to C,"HCV RNA; RBV 50, E2",6
same,insertions (resulting in stop codons),"HCV RNA; RBV 50, E2",2 insertions
same,ERROR GEN RATE,"HCV RNA; RBV 50, E2 (HVR-1), listed as RBV",1.7 X 10^−3 and 1.5^2 X 10^−3
same,ERROR GEN RATE,HCV RNA; [1],1.5 X 10^−3
same,MUTANT CLONES (%),HCV RNA; [1],12(60%)
same,nt-deletion,HCV RNA; [1],1 nt-deletion
same,nt-insertion,HCV RNA; [1],1 nt-insertion
same,ERROR GEN RATE,"HCV RNA; RBV 50, NS5A",2.5^3 X 10^−3
same,MUTANT CLONES (%),"HCV RNA; RBV 50, NS5A",5(20%)
same,NONSYN/SYN SUBS,"HCV RNA; RBV 50, NS5A",12/0
same,Transition Mutations A to G,"HCV RNA; RBV 50, NS5A",1
same,Transition Mutations C to T,"HCV RNA; RBV 50, NS5A",1
same,ERROR GEN RATE,"HCV RNA; RBV 50, NS5B",1.7 X 10^−3
same,Transition Mutations A to G,"HCV RNA; RBV 50, NS5B",2
same,Transition Mutations C to T,"HCV RNA; RBV 50, NS5B",1
same,Transition Mutations G to A,"HCV RNA; RBV 50, NS5B",4
same,MUTANT CLONES (%),"HCV RNA; RBV 50, NS5B, listed as RBV",7(39%)
same,NONSYN/SYN SUBS,"HCV RNA; RBV 50, NS5B, listed as RBV",9/3
same,NONSYN/SYN SUBS,"HCV RNA; RBV 50, NS5B, listed as REV",9/4
same,MUTANT CLONES (%),"HCV RNA; RBV 50, all regions",29(33%)
same,Non-Syn/Syn Substitutions,"HCV RNA; RBV 50, all regions",40/14
same,dose-responsiveness of mutations,HCV RNA; RBV 50 vs 400,not a demonstrable dose-responsiveness
same,Total Mutations (all regions),HCV RNA; RBV 400,31
same,ERROR GEN RATE,"HCV RNA; RBV 400, 5′UTR",0.7 X 10^−3
same,MUTANT CLONES (%),"HCV RNA; RBV 400, 5′UTR",3(21%)
same,NONSYN/SYN SUBS,"HCV RNA; RBV 400, 5′UTR",0/3
same,Transition Mutations A to G,"HCV RNA; RBV 400, 5′UTR",1
same,Transition Mutations G to A,"HCV RNA; RBV 400, 5′UTR",1
same,MUTANT CLONES (%),"HCV RNA; RBV 400, CORE",4(20%)
same,NONSYN/SYN SUBS,"HCV RNA; RBV 400, CORE",5/1
same,Transition Mutations A to G,"HCV RNA; RBV 400, CORE",1
same,Transition Mutations C to T,"HCV RNA; RBV 400, CORE",2
same,Transition Mutations G to A,"HCV RNA; RBV 400, CORE",1
same,Transition Mutations T to C,"HCV RNA; RBV 400, CORE",1
same,ERROR GEN RATE,"HCV RNA; RBV 400, CORE, listed as RBV",0.6^4 X 10^−3 and 0.6 X 10^−3
same,MUTANT CLONES (%),"HCV RNA; RBV 400, E2",7(35%)
same,Transition Mutations A to G,"HCV RNA; RBV 400, E2",3
same,Transition Mutations C to T,"HCV RNA; RBV 400, E2",2
same,Transition Mutations G to A,"HCV RNA; RBV 400, E2",1
same,Transition Mutations T to C,"HCV RNA; RBV 400, E2",1
same,insertions,"HCV RNA; RBV 400, E2",2 insertions
same,ERROR GEN RATE,"HCV RNA; RBV 400, E2, listed as RBV",1.2 X 10^−3 and 1.2^4 X 10^−3
same,NONSYN/SYN SUBS,"HCV RNA; RBV 400, E2, listed as RBV",9/4 and 7/5
same,ERROR GEN RATE,"HCV RNA; RBV 400, NS5A",0.9 X 10^−3
same,MUTANT CLONES (%),"HCV RNA; RBV 400, NS5A",2(14%)
same,NONSYN/SYN SUBS,"HCV RNA; RBV 400, NS5A",3/0
same,ERROR GEN RATE,"HCV RNA; RBV 400, NS5B",1 X 10^−3
same,MUTANT CLONES (%),"HCV RNA; RBV 400, NS5B",6(35%)
same,NONSYN/SYN SUBS,"HCV RNA; RBV 400, NS5B",5/2
same,Transition Mutations A to G,"HCV RNA; RBV 400, NS5B",2
same,Transition Mutations G to A,"HCV RNA; RBV 400, NS5B",1
same,Transition Mutations T to C,"HCV RNA; RBV 400, NS5B",2
same,MUTANT CLONES (%),"HCV RNA; RBV 400, all regions",25(30%)
same,Non-Syn/Syn Substitutions,"HCV RNA; RBV 400, all regions",20/11
same,induction of mutations / error generation in the HCV genome,"HCV RNA; RBV, all regions tested, listed as RBV",induces mutations across all regions; also recorded: increases error generation
same,dN/dS (nonsynonymous/synonymous mutation),"HCV RNA; ribavirin at 50 (unit uncertain), all regions tested",2.85
interferon-α-2b,HCV core protein synthesis,HCV core protein,dose-responsive inhibition
same,HCV (−) RNA synthesis,"HCV (−) RNA synthesis; doses from 2000 to 15,000 units/well, CV-1 cells",dose-dependent inhibition
same,Total Mutations (all regions),"HCV RNA; IFN 100,000",30
same,MUTANT CLONES (%),"HCV RNA; IFN 100,000, all regions",19(30%)
same,Non-Syn/Syn Substitutions,"HCV RNA; IFN 100,000, all regions",20/10
same,5′ UTR sequences,"HCV RNA; IFN 100,000 U",remained invariant
same,ERROR GEN RATE,"HCV RNA; IFN 100,000U, 5′UTR",0 X 10^−3
same,MUTANT CLONES (%),"HCV RNA; IFN 100,000U, 5′UTR",0
same,NONSYN/SYN SUBS,"HCV RNA; IFN 100,000U, 5′UTR",0
same,MUTANT CLONES (%),"HCV RNA; IFN 100,000U, CORE",4(36%)
same,NONSYN/SYN SUBS,"HCV RNA; IFN 100,000U, CORE",2/2
same,Transition Mutations T to C,"HCV RNA; IFN 100,000U, CORE",2
same,ERROR GEN RATE,"HCV RNA; IFN 100,000U, CORE, listed as IFN",0.8^5 X 10^−3 and 0.8 X 10^−3
same,ERROR GEN RATE,"HCV RNA; IFN 100,000U, E2",2.8^6 X 10^−3
same,MUTANT CLONES (%),"HCV RNA; IFN 100,000U, E2",10(83%)
same,NONSYN/SYN SUBS,"HCV RNA; IFN 100,000U, E2",10/6
same,Transition Mutations A to G,"HCV RNA; IFN 100,000U, E2",4
same,Transition Mutations C to T,"HCV RNA; IFN 100,000U, E2",2
same,Transition Mutations T to C,"HCV RNA; IFN 100,000U, E2",9
same,stop codon,"HCV RNA; IFN 100,000U, E2",1
same,ERROR GEN RATE,"HCV RNA; IFN 100,000U, NS5A",1.4 X 10^−3
same,MUTANT CLONES (%),"HCV RNA; IFN 100,000U, NS5A",3(16%)
same,NONSYN/SYN SUBS,"HCV RNA; IFN 100,000U, NS5A",5/1
same,Transition Mutations A to G,"HCV RNA; IFN 100,000U, NS5A",1
same,Transition Mutations C to A,"HCV RNA; IFN 100,000U, NS5A",2
same,Transition Mutations T to C,"HCV RNA; IFN 100,000U, NS5A",1
same,ERROR GEN RATE,"HCV RNA; IFN 100,000U, NS5B",0.9 X 10^−3
same,MUTANT CLONES (%),"HCV RNA; IFN 100,000U, NS5B",2(18%)
same,NONSYN/SYN SUBS,"HCV RNA; IFN 100,000U, NS5B",3/1
same,dN/dS (nonsynonymous/synonymous mutation),"HCV RNA; IFN-α, all regions tested",2.0
